Test results taken from patent US9624215B2, “Amine derivative or salt thereof” (TOYAMA CHEMICAL CO., LTD., priority 2012, dated 2017).
pIC50: −log10 of the molar value.

Tested on: normal human neonatal foreskin epidermal keratinocytes (NHEK-F)
Test: Cell proliferation inhibition test
Assay type: cell-based
Details: Keratinocyte, 72 h, NHEK-F cells, three days incubation, ATPlite or CellTiterGlo, read-out: IC50 (concentration of the compound at which the cell count is reduced by 50%)
Method in brief: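 NHEK-F keratinocytes, 2×10^3 per well in Humedia-EG2, plated overnight, then exposed to compound for three days. Cell count by ATPlite or CellTiterGlo luminescence; inhibition = 100 − (treated/untreated count)×100, IC50 as 50% reduction concentration.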

Structure (SMILES) | pIC50
COc1ccc(-c2cc(Nc3ncc(C4CC4)cc3C(=O)O)cc3ccn(C)c23)cc1 [Example 487, 5-cyclopropyl-2-((7-(4-methoxyphenyl)-1-methyl-1H-indol-5-yl)amino)nicotinic acid] | ≥ 8.00
Cn1ccc2cc(Nc3ncc(C4CC4)cc3C(=O)O)cc(-c3ccccn3)c21 [Example 500, 5-cyclopropyl-2-((1-methyl-7-(pyridin-2-yl)-1H-indol-5-yl)amino)nicotinic acid] | 7.00 to 8.00
O=C(O)c1cc(C2CC2)cnc1Nc1cccc2c1ccn2CC1CC1 [Example 437, 5-cyclopropyl-2-((1-(cyclopropylmethyl)-1H-indol-4-yl)amino)nicotinic acid] | 7.00 to 8.00
Cn1ccc2cc(Nc3ncc(C4CC4)cc3C(=O)O)cc(C3CCCCC3)c21 [Example 607, 2-((7-cyclohexyl-1-methyl-1H-indol-5-yl)amino)-5-cyclopropylnicotinic acid] | ≥ 8.00
O=C(O)c1cc(C2CC2)cnc1Nc1cccc2c1ccn2CC1CCCCC1 [Example 429, 2-((1-(cyclohexylmethyl)-1H-indol-4-yl)amino)-5-cyclopropylnicotinic acid] | ≥ 8.00
CCc1cnc(Nc2ccc3c(ccn3Cc3ccccc3)c2)c(C(=O)O)c1 [Example 381, 2-((1-benzyl-1H-indol-5-yl)amino)-5-ethylnicotinic acid] | 7.00 to 8.00
COCCCc1cc(Nc2ncc(C3CC3)cc2C(=O)O)cc2ccn(CC(C)C)c12 [Example 608, 5-cyclopropyl-2-((7-(3-methoxypropyl)-1-(2-methylpropyl)-1H-indol-5-yl)amino)nicotinic acid] | ≥ 8.00
O=C(O)c1cc(Cl)ccc1Nc1ccc2c(ccn2-c2cccnc2)c1 [Example 49, 5-chloro-2-((1-(pyridin-3-yl)-1H-indol-5-yl)amino)benzoic acid] | 7.00 to 8.00
COc1ccccc1-c1cn(C)c2ccc(Nc3ncc(C4CC4)cc3C(=O)O)cc12 [Example 581, 5-cyclopropyl-2-((3-(2-methoxyphenyl)-1-methyl-1H-indol-5-yl)amino)nicotinic acid] | 7.00 to 8.00
O=C(O)c1cc(C2CC2)cnc1Nc1cccc2c(-c3ccccc3)nccc12 [Example 185, 5-cyclopropyl-2-((1-phenylisoquinolin-5-yl)amino)nicotinic acid] | ≥ 8.00
Cc1cccc(-c2cn(C)c3ccc(Nc4ncc(C5CC5)cc4C(=O)O)cc23)c1 [Example 569, 5-cyclopropyl-2-((1-methyl-3-(3-methylphenyl)-1H-indol-5-yl)amino)nicotinic acid] | 6.00 to 7.00
Cn1ccc2cc(Nc3ncc(C4CC4)cc3C(=O)O)cc(C3CC3)c21 [Example 409, 5-cyclopropyl-2-((7-cyclopropyl-1-methyl-1H-indol-5-yl)amino)nicotinic acid] | 7.00 to 8.00
O=C(O)c1cc(C2CC2)cnc1Nc1ccc2c(-c3ccccc3)nccc2c1 [Example 527, 5-cyclopropyl-2-((1-phenylisoquinolin-6-yl)amino)nicotinic acid] | ≥ 8.00
O=C(O)c1cc(C2CC2)cnc1Nc1cnc2c(ccn2Cc2ccccc2)c1 [Example 545, 2-((1-benzyl-1H-pyrrolo(2,3-b)pyridin-5-yl)amino)-5-cyclopropylnicotinic acid] | ≥ 8.00
O=C(O)c1cc(Cl)ncc1Nc1ccc2c(ccn2Cc2ccccc2)c1 [Example 229, 5-((1-benzyl-1H-indol-5-yl)amino)-2-chloroisonicotinic acid] | 7.00 to 8.00
COCCCc1cccc(Cn2ccc3cc(Nc4ncc(C5CC5)cc4C(=O)O)ccc32)c1 [Example 509, 5-cyclopropyl-2-((1-(3-(3-methoxypropyl)benzyl)-1H-indol-5-yl)amino)nicotinic acid] | ≥ 8.00

Structure (SMILES) | pIC50
CCn1c2c(c3cc(Nc4ncc(C5CC5)cc4C(=O)O)ccc31)CCCC2 [Example 166, 5-cyclopropyl-2-((9-ethyl-2,3,4,9-tetrahydro-1H-carbazol-6-yl)amino)nicotinic acid] | 6.00 to 7.00
O=C(O)c1cc(Cl)ccc1Nc1ccc2c(ccn2Cc2cscn2)c1 [Example 302, 5-chloro-2-((1-(thiazol-4-ylmethyl)-1H-indol-5-yl)amino)benzoic acid] | 7.00 to 8.00
O=C(O)c1cc(C2CC2)cnc1Nc1ccc2c(ccn2Cc2cccc(OC(F)(F)F)c2)c1 [Example 496, 5-cyclopropyl-2-((1-(3-(trifluoromethoxy)benzyl)-1H-indol-5-yl)amino)nicotinic acid] | 7.00 to 8.00
Cn1ccc2cc(Nc3ncc(C4CC4)cc3C(=O)O)cc(-c3ccc(-c4ccccc4)cc3)c21 [Example 191, 2-((7-([1,1′-biphenyl]-4-yl)-1-methyl-1H-indol-5-yl)amino)-5-cyclopropylnicotinic acid] | ≥ 8.00
O=C(O)c1cc(C2CC2)cnc1Nc1ccc2[nH]cc(-c3ccccc3)c2c1 [Example 156, 5-cyclopropyl-2-((3-phenyl-1H-indol-5-yl)amino)nicotinic acid] | 6.00 to 7.00
O=C(O)c1cc(C2CC2)cnc1Nc1ccc2c(ccn2CCCc2ccccc2)c1 [Example 618, 5-cyclopropyl-2-((1-(3-phenylpropyl)-1H-indol-5-yl)amino)nicotinic acid] | ≥ 8.00
O=C(O)c1cc(Cl)ccc1Nc1ccc2c(ccn2Cc2ccc3ccccc3n2)c1 [Example 251, 5-chloro-2-((1-(quinolin-2-ylmethyl)-1H-indol-5-yl)amino)benzoic acid] | 7.00 to 8.00
Cn1cc(-c2ccccc2)c2cc(Nc3ncc(Cl)cc3C(=O)O)ccc21 [Example 647, 5-chloro-2-((1-methyl-3-phenyl-1H-indol-5-yl)amino)nicotinic acid] | 7.00 to 8.00
O=C(O)c1cc(C2CC2)cnc1Nc1ccc2c(ccn2Cc2ccc(C(F)(F)F)cc2)c1 [Example 451, 5-cyclopropyl-2-((1-(4-(trifluoromethyl)benzyl)-1H-indol-5-yl)amino)nicotinic acid] | 7.00 to 8.00
O=C(O)c1cc(C2CC2)ccc1Nc1ccc2[nH]cc(-c3ccccc3)c2c1 [Example 377, 5-cyclopropyl-2-((3-phenyl-1H-indol-5-yl)amino)benzoic acid] | 7.00 to 8.00
CCOCCc1cc(Nc2ncc(C3CC3)cc2C(=O)O)cc2ccn(C)c12 [Example 605, 5-cyclopropyl-2-((7-(2-ethoxyethyl)-1-methyl-1H-indol-5-yl)amino)nicotinic acid] | 7.00 to 8.00
O=C(O)c1cc(C2CC2)cnc1Nc1ccc2c(ccn2Cc2ccncc2)c1 [Example 148, 5-cyclopropyl-2-((1-(pyridin-4-ylmethyl)-1H-indol-5-yl)amino)nicotinic acid] | 6.00 to 7.00
Cc1cc2cc(Nc3ncc(C4CC4)cc3C(=O)O)ccc2n1CC(C)C [Example 550, 5-cyclopropyl-2-((1-isobutyl-2-methyl-1H-indol-5-yl)amino)nicotinic acid] | 7.00 to 8.00
O=C(O)c1cc(C2CC2)cnc1Nc1ccc2c(-c3ccccc3)c[nH]c2c1 [Example 43, 5-cyclopropyl-2-((3-phenyl-1H-indol-6-yl)amino)nicotinic acid] | 7.00 to 8.00
Cn1cc(-c2ccccc2)c2ccc(Nc3ncc(C4CC4)cc3C(=O)O)cc21 [Example 41, 5-cyclopropyl-2-((1-methyl-3-phenyl-1H-indol-6-yl)amino)nicotinic acid] | 7.00 to 8.00
O=C(O)c1cc(C2CC2)cnc1Nc1ccc2c(c1)CCCN2c1ccccc1 [Example 181, 5-cyclopropyl-2-((1-phenyl-1,2,3,4-tetrahydroquinolin-6-yl)amino)nicotinic acid] | ≥ 8.00
